What was measured:
[1] = test system: panel of 60 human tumor cell lines; assay: Test D: screen against a panel of 60 human tumor cell lines; type: cell-based
Excerpt: Test D Anti-Cancer Activity
The compound of Example 1 below was screened against a panel of 60 human tumor cell lines.

[2] = test system: total DNA methyltransferase activity in A549 non-small cell lung cancer cells; assay: Test E experiments 1 and 2: DNA methyltransferase activity of nuclear extracts from treated A549 cells (EpiQuik kit); type: cell-based, human
Description: (§1) Test E The Methyltransferase Activity of the Compound of Example 1 was Evaluated as Follows.
(§2) For experiments 1 and 2, A549 non-small cell lung cancer cells were incubated with the compound of Example 1 (1 μM final concentration) or vehicle (untreated) for 2 h and nuclear extracts were prepared by standard methods. The total DNA methyltransferase activity of the extracts was measured using EpiQuik™ DNA Methyltransferase Activity/Inhibition Assay Kit (Epigentek, Brooklyn, N.Y.), according to the manufacturer's directions. For experiment 3, the assay was carried out using purified HeLa nuclear extracts in the presence of the compound of Example 1 (500 nM final concentration) or vehicle (untreated).
(§3) The assay involves incubation of nuclear extracts (as a source of DNA methyltransferase activity) with immobilized DNA substrate in the presence of Adomet (methyl donor). The DNA methyltransferase activity was measured by determining levels of 5-methylcytosine in the DNA substrate using a primary antibody to 5-methylcytosine and a secondary antibody for colorimetric detection at 450 nm.

[3] = test system: DNA methyltransferase activity of HeLa nuclear extracts; assay: Test E experiment 3: DNA methyltransferase activity of purified HeLa nuclear extracts incubated in vitro with compound (EpiQuik kit); type: biochemical; conditions: experiment 3: 20 μg HeLa nuclear extracts incubated in vitro with 500 nM; untreated 0.264
Description: as §1, §2, §3

[4] = test system: A549 human non-small cell lung cancer xenografts; type: in vivo
Excerpt: FIG. 2. […] (A) Tumor growth appeared to be reduced in mice treated with the compound of Example 1, but the effect was not statistically significant (p≧0.13). […] Compare with the mean±SE in the control group.
Test F In-vivo Effects of Compound of Example 1.
The following study was designed to assess toxicity and activity in female nude mice bearing A549 human non-small cell lung cancer xenografts. Athymic nude mice were inoculated subcutaneously (s.c.) with A549 cells and treatment began after small tumors were visible. The compound of Example 1 was prepared at 100 mg/ml or 50 mg/ml in DMSO and diluted 1:10 with sterile PBS. Mice were treated by intraperitoneal (i.p.) injections of 100 μl of these solutions, equivalent to approximately 25 mg/kg or 50 mg/kg; the control group received identical injections of vehicle (10% DMSO in PBS). Mice received injections of the compound of Example 1 or vehicle five times per week (once per day, except on weekends) for up to 30 injections. […] Evaluating the long-term outcome was complicated by the fact that several animals in the compound of Example 1 treated groups developed tumor necrosis/ulceration and had to be euthanized before the end of the experiment, as required by IACUC protocol. This tumor necrosis is believed to be treatment-related as it occurred in 5/12 treated animals, but 0/6 of the control group. […] The overall response seemed to be equivalent or better in the low dose group compared with the high dose group, but that may be consistent with the mechanism of action, since a similar effect has been observed for decitabine in humans.

CCCCCC(O)C#CC(F)(F)Br (stereo not drawn) [Example 1, 1-bromo-1,1-difluoro-non-2-yn-4-ol] was tested, and the GI50 ([1]; Homo sapiens, all seven breast cancer cell lines, including a doxorubicin-resistant line) was 10 to 66 nM, the “activity by tumor type” value ([1]; breast, prostate, colon and brain (CNS) tumor cells) was “highly active” and the “activity by tumor type” value ([1]; other tumor types, e.g. melanomas) was “less potent”. The “Relative DNA Methyltransferase Activity” value ([2]; experiment 1: nuclear extracts from lung cancer cells treated 1 μM for 2 h, untreated 0.114) was 0.073, the “Relative DNA Methyltransferase Activity” value ([2]; experiment 2 (repeat): nuclear extracts from lung cancer cells treated 1 μM for 2 h, untreated 0.122) was 0.075 and the “Relative DNA Methyltransferase Activity” value [3] was 0.092. For the same molecule, the “tumor necrosis/ulceration, treated animals affected” value ([4]; approx. 25 or 50 mg/kg i.p., 0/6 in the control group) was 5/12, the “tumor growth compared to control-treated mice” value ([4]; approx. 25 or 50 mg/kg i.p., difference not statistically significant (p≧0.13)) was “grew slower” and the “size of ulcerated tumors versus control group at the same time point” value ([4]; treated mice euthanized early due to tumor necrosis) was “substantially smaller”.

From US8703829B2, “Therapeutic compounds” (University of Louisville Research Foundation, Inc., priority 2007, dated 2014)
